This is an account of results in patent publication US20230257374A1, “NOVEL KRAS G12C PROTEIN INHIBITOR, PREPARATION METHOD THEREFOR, AND USE THEREOF” (INNOVENT BIOLOGICS (SUZHOU) CO., LTD., priority 2019, published 2023).

pIC50: −log10 of the molar value.

Data set [1] relates to H1373 cell line (K-RAS G12C). Kind of data set: cells. The data set is classed as cell-based. The note with it: Homo sapiens, NCI-H1373, 96 h, read-out: H1373 (K-RAS G12C) IC50. The method, then: (§1) a) On day 1, seed cells were placed in T75 a flask. b) On day 3, the medium was taken out and washed once with DPBS. c) Cells were trypsinized with 2 mL TrypLE™ Express enzyme at room temperature (RT) or 37° C. until cells detached. d) 5 mL of fresh medium was added to suspend the cells, and then the suspension was centrifuged at 1000 rpm and room temperature for 5 min. e) The supernatant was discarded, and the cells were resuspended in 5 mL of fresh medium and counted using Countess™ H. f) The cells were seeded back into the T75 flask for further culture or placed into an assay plate for 3D cell proliferation assay.
(§2) The cells were seeded at a density of 600 cells/well in a 384-well plate with 40 μL of medium per well and a final DMSO concentration of 0.5%. b) On day 4, a 3D CTG reagent was added to each well, followed by shaking at room temperature for 1 h. c) The signals were recorded using Envision.
(§3) a) Robustness was examined using 0.5% DMSO and data of blank control medium: H=mean (DMSO); L=mean (medium); SD (H)=STDEV (DMSO); SD (L)=STDEV (medium);
(§4) Y=peak valley value+(peak top value−peak valley value)/(1+10^((Log IC50−X)×HillSlope));
(§5) X: logarithm of compound concentration; Y: percent inhibition (% inhibition); Peak top and peak valley values: the plateau period units are the same as Y; log IC50: the same logarithmic unit as X; HillSlope: slope coefficient or Hill slope.

The subject of data set [2] is MIA PaCa-2 cell line (K-RAS G12C). The experiment in a line: cells. The class given is cell-based. The note with it: Homo sapiens, MIA PaCa-2, 96 h, read-out: MIA PaCa-2 (K-RAS G12C) IC50. Here is the method:
as §1, §2, §3, §4, §5

For data set [3], the system named is H358 cell line (K-RAS G12C). The experiment in a line: cells. The class given is cell-based, human. The note with it: Homo sapiens, NCI-H358, 96 h, read-out: H358 (K-RAS G12C) IC50. The method, then:
as §1, §2, §3, §4, §5

Data set [4] can be described thus: in vitro. The note with it: microsomes, pH 7.4. The method, then:
To examine the in vitro metabolic stability of the test compounds in liver microsomes of different species, representative compounds were selected, and their stability was evaluated by measuring the concentration of the test compounds in the incubation system using LC/MS/MS and calculating their intrinsic clearance in the microsome system.
The method is specifically as follows: each compound was first dissolved in DMSO to prepare a 200 μM working solution and added to the system solution at the time of testing to form a solution with a final concentration of 1 μM.
The microsomes were stored in a −80° C. freezer.
Preparation of incubation system: an incubation system was prepared as described in the table below.
25 μL, of NADPH or phosphate buffered saline was transferred to the incubation system described above, and 2 μL, of 200 μM of the test compound or verapamil was added. The sample with NADPH added was prepared in duplicate; the NADPH negative sample was prepared in single parallel. 30 μL, of suspension was taken at 0.5, 5, 15, 30 and 60 minutes. The reaction system was terminated by adding 180 μL, of acetonitrile containing an internal standard and vortexed for 10 min. […] 100 μL, of the supernatant was transferred to a feeding plate, and 100 μL, of purified water was added. The mixture was well mixed for UPLC-MS/MS analysis.
The results based on the data were obtained by calculation according to the peak area ratio, and the peak area was detected through an extracted ion chromatogram.
The slope value (k) was determined by linear fitting of the natural logarithm of drug elimination percentage over time.

The subject of data set [5] is NCI-H358 tumor (K-RAS G12C mutation). The class given is in vivo, BALB/c nude mice. Here is the method:
The cells were digested with trypsin-EDTA twice a week for passaging as per conventional practice. When the cell saturation reached 80%-90% and a required amount was achieved, the cells were collected and counted for later use. […] 5% DMSO/5% Solutol/90% water was used as a blank control. 3) Tumor inoculation and drug administration: BALB/c nude mice, female, 6-8 weeks old, weighing 18-20 g. The experiment started after 3-7 days of adaptive feeding. 0.1 mL of NCI-H358 cells (5×10^6 cells) were inoculated subcutaneously on the right back of each mouse. The mice were grouped for administration when the average tumor volume reached approximately 150 mm^3. The animals were weighed before administration and the tumor volume was measured. Grouping was randomly performed according to the tumor volume.
Animals were monitored daily for health and death, and routine examinations include observation of the effect of tumor growth and drug treatment on the daily performance of the animals, such as behavioral activities, food and water intake, weight changes (measured once every other day), appearance, or other abnormal conditions. Animal mortality and side effects within each group were recorded based on the number of animals in the group.
Tumor diameters were measured 2-3 times weekly using a vernier caliper.
The tumor volume was calculated as follows: […]
where a and b represent the long and short diameters of the tumor, respectively.
The anti-tumor therapeutic effect of the compound was evaluated by tumor growth inhibition rate TGI (%) or relative tumor proliferation rate T/C (%).
TGI (%) was calculated as follows: […]
T/C (%) was calculated as follows: […]
where TRTV represents the relative tumor volume of the treatment group; CRTV represents the relative tumor volume of the solvent control group.
Based on the results of tumor measurement, the relative tumor volume (RTV) was calculated as follows: […]
where V0 represents the average tumor volume measured at the time of grouping and administration (i.e., d0), Vt represents the average tumor volume in a certain measurement, and TRTV and CRTV take the data on the same day.
After the completion of the experiment, tumors were weighed, and the percentage of Tweight/Cweight was calculated, where Tweight and Cweight represent the tumor weights of the treatment group and the solvent control group, respectively.
Data calculation and analysis: T test was employed for comparison between two groups. One-way ANOVA was employed for comparison between three or more groups. If there is a significant difference in F-values, multiple comparisons should be made after ANOVA analysis. All data analyses were performed with SPSS 17.0. p<0.05 was defined as a significant difference.

For data set [6] the following is noted: human, plasma, 5 μM.
Data set [7] is described as follows: in vitro. The note with it: human, plasma.
Setting [8] is: Day 0 (at grouping, before administration), 15 mg/kg PO QD group.

As usually defined, the pIC50 is the negative decadic logarithm of the IC50, by convention in mol/L. The half-life is how long it takes for the measured level to halve. Lower therefore signals fast loss. The microsomal CLint is a measure of how fast metabolising enzymes remove a compound, apart from limits set by blood flow. In the case of `[2H]C([2H])([2H])N1CCC[C@H]1COc1nc2c(c(N3CCN(C(=O)C=C)[C@@H](CC#N)C3)n1)CCN(c1cccc3cccc(Cl)c13)C2` [Compound 41, 2-((S)-1-acryloyl-4-(7-(8-chloronaphthalene-1-yl)-2-(((S)-1-(methyl-d3)pyrrolidin-2-yl)methoxy)-5,6,7,8-tetrahydropyrido[3,4-d]pyrimidin-4-yl)piperazin-2-yl)acetonitrile], in data set [1], the pIC50 was 9.74. Moreover, the negative logarithm of the IC50 (pIC50) in data set [2] is 9.51. Further, in data set [3], the pIC50 was 9.55. Besides, in “in vitro [4]” (ICR (CD-1), mouse), the half-life at 1 μM is 14.6 min and the microsomal CLint at 1 μM is 95.3 µL/min/mg. Moreover, in “in vitro [4]” (human), the half-life at 1 μM was 26 min and the microsomal CLint at 1 μM came out at 53.4 µL/min/mg. In data set [5] (setting [8]), the “Day 0 Body weight (g) Waverage ± SEM” value came out at 22.7 ± 0.4 g and the “Day 0 Tumor volume (mm^3) Vaverage ± SEM” value is 151 ± 8 mm^3. In data set [5] (Day 21, 15 mg/kg PO QD), the “Day 21 Body weight (g) Waverage ± SEM” value is given as 23.4 ± 0.6 g, the “Day 21 Tumor volume (mm^3) Vaverage ± SEM” value is reported as 168 ± 20 mm^3 and the “Tumor inhibition rate TGI (%)” value was determined as 97.0%. The Tumor regression in data set [5] (Day 21, 15 mg/kg PO QD, animals with regression / group of 8) is 2/8. The “Remaining percentage (%) 0 min” value in data set [6] (0 h) is recorded as 100.00%. Also, in data set [6] (0.5 h), the “Remaining percentage (%) 30 min” value is listed as 96.01%. Also, the “Remaining percentage (%) 60 min” value in data set [6] (1 h) stood at 75.85%. Further, the “Remaining percentage (%) 120 min” value in data set [6] (2 h) stood at 56.99%. In data set [6] (3 h), the “Remaining percentage (%) 180 min” value came out at 34.80%. In addition, the “Remaining percentage (%) 240 min” value in data set [6] (4 h) was found to be 26.83%. The same compound gave a half-life at 5 μM in the data set “in vitro [7]” of 119 min.
